Source: patent US20250295799A1, “ANTIBODY-DRUG CONJUGATES TARGETING GLYPICAN-3 AND METHODS OF USE” (Zymeworks BC Inc., priority 2022, published 2025)

Assays:
[1] = test system: SKOV-3 (ovarian cancer); assay: In vitro cytotoxicity of camptothecin analogues (CellTiter-Glo); format: cell-based; settings: Homo sapiens, SK-OV-3, 96 h, read-out: pIC50 SKOV-3 (converted)
Protocol: (§1) In vitro potency was assessed on multiple cancer cell lines: SK-BR-3 (breast cancer), SKOV-3 (ovarian cancer), Calu-3 (lung cancer), ZR-75-1 (breast cancer) and MDA-MB-468 (breast cancer). Serial dilutions of camptothecin analogues were prepared in RPMI 1640+10% FBS, and 20 μL of each dilution was added to 384-well plates. Cells cultured in log-phase growth were detached by brief incubation in 0.05% Trypsin and resuspended in respective culturing media at 20,000 cells/mL (with the exception of ZR-75 cells, which were resuspended at 10,000 cells/mL). 50 μL of cell suspension was then added to the plates containing test articles. Cells were incubated with test articles for 4 d at 37° C. (with the exception of ZR-75 cells, which were incubated for 5 d). Growth inhibition was assessed by CellTiter-Glo® (Promega Corporation, Madison, WI) and luminescence was measured on a plate reader. IC50 values were determined by GraphPad Prism (GraphPad Software, San Diego CA).

[2] = test system: ZR-75-1 (breast cancer); assay: as above; format: cell-based; settings: Homo sapiens, ZR-75-1, 120 h, read-out: pIC50 ZR-75 (converted)
Protocol: as §1

[3] = test system: MDA-MB-468 (breast cancer); assay: as above; format: cell-based; settings: Homo sapiens, MDA-MB-468, 96 h, read-out: pIC50 MDA-MB-468 (converted)
Protocol: as §1

[4] = test system: SK-BR-3 (breast cancer); assay: as above; format: cell-based; settings: Homo sapiens, SK-BR-3, 96 h, read-out: pIC50 SKBR-3 (converted)
Protocol: as §1

[5] = test system: Calu-3 (lung cancer); assay: as above; format: cell-based; settings: Homo sapiens, Calu-3, 96 h, read-out: pIC50 Calu-3 (converted)
Protocol: as §1

[6] = test system: hepatocellular carcinoma; settings: adults with HCC; cited from earlier work

Row | Molecule | IC50 [1] | IC50 [2] | IC50 [3] | IC50 [4] | IC50 [5] | efficacy in clinical trials, in words [6] | safety in clinical trials, in words [6]
1 | CC[C@@]1(O)C(=O)OCc2c1cc1n(c2=O)Cc2c-1nc1cc(F)c(C)cc1c2CN1CCN(c2ccc(N)cc2)CC1 [Compound 108, (S)-11-((4-(4-aminophenyl)piperazin-1-yl)methyl)-4-ethyl-8-fluoro-4-hydroxy-9-methyl-1,12-dihydro-14H-pyrano[3′,4′:6,7]indolizino[1,2-b]quinoline-3,14(4H)-dione] | 55 nM | 18.6 nM | 47.9 nM | 29.5 nM | 40.7 nM |  | 
2 | CC[C@@]1(O)C(=O)OCc2c1cc1n(c2=O)Cc2c-1nc1cc(F)c(C)cc1c2CN1CCO[C@@H](CO)C1 [Compound 113, (S)-4-ethyl-8-fluoro-4-hydroxy-11-(((R)-2-(hydroxymethyl)morpholino)methyl)-9-methyl-1,12-dihydro-14H-pyrano[3′,4′:6,7]indolizino[1,2-b]quinoline-3,14(4H)-dione] | 4.27 nM | 2.19 nM | 3.39 nM | 1.95 nM | 3.02 nM |  | 
3 | CC[C@@]1(O)C(=O)OCc2c1cc1n(c2=O)Cc2c-1nc1cc(F)c(C)cc1c2CN1CCSCC1CO (stereo partly drawn) [Compound 114, (4S)-4-ethyl-8-fluoro-4-hydroxy-11-((3-(hydroxymethyl)thiomorpholino)methyl)-9-methyl-1,12-dihydro-14H-pyrano[3′,4′:6,7]indolizino[1,2-b]quinoline-3,14(4H)-dione] | 0.178 nM |  | 0.417 nM | 0.107 nM | 0.0933 nM |  | 
4 | CC[C@@]1(O)C(=O)OCc2c1cc1n(c2=O)Cc2c-1nc1cc(F)c(C)cc1c2CN1C2CCC1(CO)CC2 [Compound 121] | 0.195 nM |  | 0.269 nM | 0.148 nM | 0.145 nM |  | 
5 | CC[C@@]1(O)C(=O)OCc2c1cc1n(c2=O)Cc2c-1nc1cc(F)c(C)cc1c2CNS(C)(=O)=O [Compound 122, (S)-N-((4-ethyl-8-fluoro-4-hydroxy-9-methyl-3,14-dioxo-3,4,12,14-tetrahydro-1H-pyrano[3′,4′:6,7]indolizino[1,2-b]quinolin-11-yl)methyl)methanesulfonamide] | 9.12 nM | 1.29 nM | 1.1 nM | 1.12 nM | 3.72 nM |  | 
6 | CC[C@@]1(O)C(=O)OCc2c1cc1n(c2=O)Cc2c-1nc1cc(F)c(C)cc1c2CNS(=O)(=O)c1ccccc1 [Compound 125, (S)-N-((4-ethyl-8-fluoro-4-hydroxy-9-methyl-3,14-dioxo-3,4,12,14-tetrahydro-1H-pyrano[3′,4′:6,7]indolizino[1,2-b]quinolin-11-yl)methyl)benzenesulfonamide] | 7.08 nM | 1.32 nM | 3.8 nM | 1.32 nM | 2.82 nM |  | 
7 | CC[C@@]1(O)C(=O)OCc2c1cc1n(c2=O)Cc2c-1nc1cc(F)c(C)cc1c2CNS(=O)(=O)c1ccc(N)cc1 [Compound 127, (S)-4-amino-N-((4-ethyl-8-fluoro-4-hydroxy-9-methyl-3,14-dioxo-3,4,12,14-tetrahydro-1H-pyrano[3′,4′:6,7]indolizino[1,2-b]quinolin-11-yl)methyl)benzenesulfonamide] | 14.5 nM | 5.25 nM | 3.8 nM | 3.31 nM | 9.33 nM |  | 
8 | CC[C@@]1(O)C(=O)OCc2c1cc1n(c2=O)Cc2c-1nc1cc(F)c(OC)cc1c2CNS(=O)(=O)c1ccc(N)cc1 [Compound 128, (S)-4-amino-N-((4-ethyl-8-fluoro-4-hydroxy-9-methoxy-3,14-dioxo-3,4,12,14-tetrahydro-1H-pyrano[3′,4′:6,7]indolizino[1,2-b]quinolin-11-yl)methyl)benzenesulfonamide] | 18.2 nM | 4.27 nM | 8.32 nM | 5.25 nM |  |  | 
9 | CC[C@@]1(O)C(=O)OCc2c1cc1n(c2=O)Cc2c-1nc1cc(F)c(C)cc1c2CNS(N)(=O)=O [Compound 131, (S)-((4-ethyl-8-fluoro-4-hydroxy-9-methyl-3,14-dioxo-3,4,12,14-tetrahydro-1H-pyrano[3′,4′:6,7]indolizino[1,2-b]quinolin-11-yl)methyl)sulfamide] |  | 0.955 nM | 9.12 nM | 1.05 nM | 9.12 nM |  | 
10 | CC[C@@]1(O)C(=O)OCc2c1cc1n(c2=O)Cc2c-1nc1cc(F)c(OC)cc1c2CNC(=O)NCc1ccc(N)cc1 [Compound 135, (S)-1-(4-aminobenzyl)-3-((4-ethyl-8-fluoro-4-hydroxy-9-methoxy-3,14-dioxo-3,4,12,14-tetrahydro-1H-pyrano[3′,4′:6,7]indolizino[1,2-b]quinolin-11-yl)methyl)urea] |  | 13.2 nM | 10.7 nM | 12.3 nM |  |  | 
11 | CC[C@@]1(O)C(=O)OCc2c1cc1n(c2=O)Cc2c-1nc1cc(F)c(N)cc1c2CN=[N+]=[N-] [Compound 152, (S)-9-amino-11-(azidomethyl)-4-ethyl-8-fluoro-4-hydroxy-1,12-dihydro-14H-pyrano[3′,4′:6,7]indolizino[1,2-b]quinoline-3,14(4H)-dione] | 2.88 nM |  | 5.01 nM | 3.24 nM | 1.48 nM |  | 
12 | codrituzumab: "Codrituzumab, also known as GC33 or RG-7686"; antibody targeting GPC3 tested clinically "as a bivalent IgG"; "reference antibody codrituzumab" |  |  |  |  |  | limited efficacy | good safety profile
